Consider 14 compounds from patent USRE47193E1, “Selectively substituted quinoline compounds” (EISAI R&D MANAGEMENT CO., LTD., priority 2013, dated 2019).

This assay concerns the target T1, mouse TLR7 (Mus musculus, UniProt P58681).
T1 sequence (P58681 27-1050): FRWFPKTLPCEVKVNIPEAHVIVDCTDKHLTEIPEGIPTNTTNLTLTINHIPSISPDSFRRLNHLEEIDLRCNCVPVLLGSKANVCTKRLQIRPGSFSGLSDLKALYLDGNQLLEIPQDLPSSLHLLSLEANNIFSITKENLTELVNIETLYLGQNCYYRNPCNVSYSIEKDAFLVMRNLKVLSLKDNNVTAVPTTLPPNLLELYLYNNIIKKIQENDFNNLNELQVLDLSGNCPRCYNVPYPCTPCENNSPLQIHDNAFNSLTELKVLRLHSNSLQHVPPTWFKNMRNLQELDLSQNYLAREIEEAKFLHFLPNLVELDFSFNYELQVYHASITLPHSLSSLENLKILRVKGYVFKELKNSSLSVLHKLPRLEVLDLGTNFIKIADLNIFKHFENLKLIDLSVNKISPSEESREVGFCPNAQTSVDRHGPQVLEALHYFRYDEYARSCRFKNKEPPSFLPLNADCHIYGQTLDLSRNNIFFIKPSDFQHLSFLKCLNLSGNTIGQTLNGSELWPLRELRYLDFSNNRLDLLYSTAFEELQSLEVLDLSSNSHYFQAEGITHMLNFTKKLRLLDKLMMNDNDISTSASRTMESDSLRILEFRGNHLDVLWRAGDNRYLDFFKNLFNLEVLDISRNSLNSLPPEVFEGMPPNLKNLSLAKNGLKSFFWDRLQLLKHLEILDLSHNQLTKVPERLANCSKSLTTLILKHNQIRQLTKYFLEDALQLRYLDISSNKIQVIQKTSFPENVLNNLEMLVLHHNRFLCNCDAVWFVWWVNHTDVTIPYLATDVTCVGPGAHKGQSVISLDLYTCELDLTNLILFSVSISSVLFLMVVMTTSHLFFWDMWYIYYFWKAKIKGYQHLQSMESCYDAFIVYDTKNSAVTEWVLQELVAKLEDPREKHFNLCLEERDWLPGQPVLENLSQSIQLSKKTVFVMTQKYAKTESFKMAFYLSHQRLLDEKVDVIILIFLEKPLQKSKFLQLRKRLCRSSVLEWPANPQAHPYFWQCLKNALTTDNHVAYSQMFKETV
Put plainly: Short-term in vivo (STIV) assay: oral dosing, R848 s.c., plasma IL-6. Also on record: female BALB/c mice (Jackson Labs, Bar Harbor, Me.) were dosed by oral gavage; tissue Jackson Labs; host or cells: living female BALB/c mice; plasma IL-6 after s.c. R848. In outline:
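Female BALB/c mice (6–8 weeks) dosed orally with compound in 0.5% aqueous methyl-cellulose at 33, 100 or 300 mg/kg; at various times afterwards given 15 ug R848 s.c. to stimulate TLR7. Plasma IL-6 measured by ELISA to gauge potency and duration of action.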

Turning to `C[C@@H]1CN(c2ccc(C#N)c3ncccc23)C[C@H](CNC2CCCC2)O1` [ER-887145], the “% Suppression vs. Vehicle” value came out at 97% (3 h, 33 mg/kg); 99% (3 h, 100 mg/kg); 67% (3 h after oral dose, 11 mg/kg); 32% (6 h, 11 mg/kg); 91% (6 h, 33 mg/kg); 99% (6 h, 100 mg/kg). Further, the “% Suppression vs. Vehicle” value (19 h, 11 mg/kg) stood at 0%; the “% Suppression vs. Vehicle” value (19 h, 33 mg/kg) stood at 0%; the “% Suppression vs. Vehicle” value (19 h, 100 mg/kg) worked out at 96%.
Take `C[C@@H]1CN(c2ccc(C#N)c3ncccc23)C[C@H](CN2CCC(N3CCCCC3)CC2)O1` [ER-887927, 5-((2S,6R)-2-([1,4′-bipiperidin]-1′-ylmethyl)-6-methylmorpholino)quinoline-8-carbonitrile]: the “% Suppression vs. Vehicle” value (6 h, 33 mg/kg) came to 100%; the “% Suppression vs. Vehicle” value (6 h, 100 mg/kg) amounted to 100%; the “% Suppression vs. Vehicle” value (6 h, 300 mg/kg) was 100%; the “% Suppression vs. Vehicle” value (19 h, 1.22 mg/kg) is reported as 56%; the “% Suppression vs. Vehicle” value (19 h, 3.67 mg/kg) worked out at 70%; the “% Suppression vs. Vehicle” value (19 h, 11 mg/kg) came to 94%. For the same compound, the “% Suppression vs. Vehicle” value turned out to be 98% (19 h, 33 mg/kg); 100% (19 h, 100 mg/kg); 100% (19 h, 300 mg/kg).
Consider `C[C@@H]1CN(C[C@H]2CN(c3ccc(C#N)c4ncccc34)C[C@@H](C)O2)CCN1` [ER-887269], for which the “% Suppression vs. Vehicle” value is listed as 95% (6 h, 33 mg/kg); 100% (6 h, 100 mg/kg); 98% (6 h, 300 mg/kg); 9% (19 h, 33 mg/kg); 58% (19 h, 100 mg/kg); 95% (19 h, 300 mg/kg).
`C[C@@H]1CN(c2ccc(C#N)c3ncccc23)C[C@H](C)O1` [ER-878952]: the “% Suppression vs. Vehicle” value runs as follows: (12 h, 200 mg/kg) 93%; (12 h, 600 mg/kg) 95%; (18 h, 200 mg/kg) 90%; (18 h, 600 mg/kg) 96%.
Regarding `C[C@@H]1CN(c2ccc(C#N)c3ncccc23)C[C@H](CN2CCC(O)CC2)O1` [ER-886953], the “% Suppression vs. Vehicle” value reads like this: (3 h, 33 mg/kg) 99%; (3 h, 100 mg/kg) 99%; (3 h, 300 mg/kg) 99%; (6 h, 33 mg/kg) 99%; (6 h, 100 mg/kg) 99%; (6 h, 300 mg/kg) 99%. Also, the “% Suppression vs. Vehicle” value is on record as 23% (19 h, 33 mg/kg); 45% (19 h, 100 mg/kg); 99% (19 h, 300 mg/kg).
On to `C[C@@H]1CN(c2ccc(C#N)c3ncccc23)C[C@H](C(=O)N[C@H]2CNC[C@H]2F)O1.Cl` [ER-899742, (2R,6R)-4-(8-cyanoquinolin-5-yl)-N-[(3S,4R)-4-fluoropyrrolidin-3-yl]-6-methylmorpholine-2-carboxamide hydrochloride], for which, where the note is “33, 100 or 300 mg/kg oral, 6, 13 or 24 hours, FIG. 1”, the “short-term in vivo suppression of the TLR7 pathway (plasma IL-6)” value is recorded as “suppression of the TLR7 pathway”. Moreover, the “% Suppression vs. Vehicle” value (6 h, 100 mg/kg) amounted to 100% and the “% Suppression vs. Vehicle” value (13 h, 100 mg/kg) is recorded as 61%. Besides, the “duration of full suppression of the R848/TLR7/IL-6 pathway in vivo” value (single oral dose 300 mg/kg) was “at least 24 hours”.
Regarding `C[C@@H]1CN(c2ccc(C#N)c3ncccc23)C[C@H](CN2CC[C@H](O)C2)O1` [ER-886820], the “% Suppression vs. Vehicle” value stood at 93% (3 h, 33 mg/kg); 100% (3 h, 100 mg/kg); 100% (3 h, 300 mg/kg); 68% (6 h, 33 mg/kg); 96% (6 h, 100 mg/kg); 100% (6 h, 300 mg/kg). In addition, the “% Suppression vs. Vehicle” value turned out to be 43% (19 h, 33 mg/kg); 35% (19 h, 100 mg/kg); 39% (19 h, 300 mg/kg).
As to `CC[C@H]1CN(C[C@H]2CN(c3ccc(C#N)c4ncccc34)C[C@@H](C)O2)CCN1` [ER-890963], the “% Suppression vs. Vehicle” value runs as follows: (3 h, 33 mg/kg) 90%; (6 h, 33 mg/kg) 98%; (6 h, 100 mg/kg) 99%; (6 h, 300 mg/kg) 100%; (13 h, 33 mg/kg) 31%; (13 h, 100 mg/kg) 80%. In addition, the “% Suppression vs. Vehicle” value is 100% (13 h, 300 mg/kg); 45% (19 h, 33 mg/kg); 50% (24 h, 100 mg/kg); 100% (24 h, 300 mg/kg).
For the compound `C[C@@H]1CN(c2ccc(C#N)c3ncccc23)C[C@H](CN2CCN(C)CC2)O1` [ER-887723], the “% Suppression vs. Vehicle” value is, setting by setting: (6 h, 33 mg/kg) 100%; (6 h, 100 mg/kg) 100%; (6 h, 300 mg/kg) 100%; (19 h, 33 mg/kg) 77%; (19 h, 100 mg/kg) 97%; (19 h, 300 mg/kg) 100%.
For `CCCN1CCN(C[C@H]2CN(c3ccc(C#N)c4ncccc34)C[C@@H](C)O2)CC1` [ER-887724], the “% Suppression vs. Vehicle” value (3 h, 33 mg/kg) is reported as 99%; the “% Suppression vs. Vehicle” value (3 h, 100 mg/kg) was found to be 99%; the “% Suppression vs. Vehicle” value (3 h, 300 mg/kg) is recorded as 99%; the “% Suppression vs. Vehicle” value (6 h, 33 mg/kg) was 99%; the “% Suppression vs. Vehicle” value (6 h, 100 mg/kg) amounted to 99%; the “% Suppression vs. Vehicle” value (6 h, 300 mg/kg) is listed as 99%. In addition, the “% Suppression vs. Vehicle” value was 83% (19 h, 33 mg/kg); 91% (19 h, 100 mg/kg); 99% (19 h, 300 mg/kg).
Regarding `CC(=O)NC1CCN(CC2CN(c3ccc(C#N)c4ncccc34)CC(C)O2)CC1` (stereo not drawn) [ER-888288], the “% Suppression vs. Vehicle” value amounted to 100% (3 h, 33 mg/kg); 98% (3 h, 100 mg/kg); 78% (6 h, 33 mg/kg); 99% (6 h, 100 mg/kg); 97% (6 h, 300 mg/kg); 50% (19 h, 33 mg/kg). Moreover, the “% Suppression vs. Vehicle” value stood at 53% (19 h, 100 mg/kg); 14% (24 h, 33 mg/kg); 0% (24 h, 100 mg/kg); 55% (24 h, 300 mg/kg).
As for `CC1CN(c2ccc(C#N)c3ncccc23)CC(CN2CCN(C)CC2C)O1` (stereo not drawn) [ER-889556], the “% Suppression vs. Vehicle” value reads like this: (3 h, 33 mg/kg) 100%; (3 h, 100 mg/kg) 100%; (6 h, 33 mg/kg) 100%; (6 h, 100 mg/kg) 100%; (19 h, 1.22 mg/kg) 44%; (19 h, 3.67 mg/kg) 89%. Besides, the “% Suppression vs. Vehicle” value is, setting by setting: (19 h, 11 mg/kg) 29%; (19 h, 33 mg/kg) 47%; (19 h, 100 mg/kg) 98%.
Regarding `CC1CN(c2ccc(C#N)c3ncccc23)CC(CN2CCCC2CO)O1` (stereo not drawn) [ER-886814], the “% Suppression vs. Vehicle” value by setting is: (3 h, 33 mg/kg) 93%; (3 h, 100 mg/kg) 100%; (3 h, 300 mg/kg) 100%; (6 h, 33 mg/kg) 57%; (6 h, 100 mg/kg) 100%; (6 h, 300 mg/kg) 100%. Also, the “% Suppression vs. Vehicle” value (19 h, 33 mg/kg) was found to be 14%; the “% Suppression vs. Vehicle” value (19 h, 100 mg/kg) was 19%; the “% Suppression vs. Vehicle” value (19 h, 300 mg/kg) was 100%.
As for `CC1CN(c2ccc(C#N)c3ncccc23)CC(CN2CCC(NC(=O)C(C)C)CC2)O1` (stereo not drawn) [ER-889745], the “% Suppression vs. Vehicle” value was found to be 93% (3 h, 100 mg/kg); 94% (6 h, 33 mg/kg); 84% (6 h, 100 mg/kg); 0% (13 h, 33 mg/kg); 99% (13 h, 100 mg/kg); 95% (13 h, 300 mg/kg). Further, the “% Suppression vs. Vehicle” value (19 h, 33 mg/kg) was found to be 0%; the “% Suppression vs. Vehicle” value (19 h, 100 mg/kg) was found to be 52%; the “% Suppression vs. Vehicle” value (24 h, 33 mg/kg) is recorded as 0%; the “% Suppression vs. Vehicle” value (24 h, 100 mg/kg) was 64%; the “% Suppression vs. Vehicle” value (24 h, 300 mg/kg) was 100%.
